Assay results reported in ChEMBL document CHEMBL2380214, “Novel hybrids of (phenylsulfonyl)furoxan and anilinopyrimidine as potent and selective epidermal growth factor receptor inhibitors for intervention of non-small-cell lung cancer” (J Med Chem, 2013).
Active and inactive are the calls of the source. The rule behind the calls is not given here.

Assays:
NCI-H1975 [1] = assay: Induction of NO production in human NCI-H1975 cells harboring EGFR L858R/[…] double mutant assessed as increase in nitrite level at 100 uM after 150 mins by Griess assay; assay type: functional, cell-based
cells [2] = assay type: ADME, cell-based; conditions: Homo sapiens, 16HBE14o-, 72 h
Description: Cytotoxicity against human 16HBE14o- cells harboring wild type EGFR assessed as growth inhibition after 72 hrs by MTT assay

cells [3] = assay type: ADME, cell-based; conditions: Homo sapiens, BEAS-2B, 72 h
Description: Cytotoxicity against human BEAS2B cells harboring wild type EGFR assessed as growth inhibition after 72 hrs by MTT assay

A-431 = assay: cells; assay type: ADME, cell-based; conditions: Homo sapiens, A-431, 72 h
Description: Cytotoxicity against human A431 cells overexpressing wild type EGFR assessed as growth inhibition after 72 hrs by MTT assay

A549 = assay: cells; assay type: ADME, cell-based; conditions: Homo sapiens, A549, 72 h
Description: Cytotoxicity against human A549 cells harboring wild type EGFR and k-RAS mutation assessed as growth inhibition after 72 hrs by MTT assay

NCI-H1975 [4] = assay: Cytotoxicity against gefitinib-resistant human NCI-H1975 cells harboring EGFR L858R/[…] double mutant assessed as growth inhibition after 72 hrs by MTT assay; assay type: functional, cell-based; conditions: NCI-H1975, 72 h
[5] = target: Epidermal growth factor receptor (Homo sapiens, UniProt P00533)
Sequence of Epidermal growth factor receptor (Homo sapiens, UniProt P00533) (P00533 whole entry): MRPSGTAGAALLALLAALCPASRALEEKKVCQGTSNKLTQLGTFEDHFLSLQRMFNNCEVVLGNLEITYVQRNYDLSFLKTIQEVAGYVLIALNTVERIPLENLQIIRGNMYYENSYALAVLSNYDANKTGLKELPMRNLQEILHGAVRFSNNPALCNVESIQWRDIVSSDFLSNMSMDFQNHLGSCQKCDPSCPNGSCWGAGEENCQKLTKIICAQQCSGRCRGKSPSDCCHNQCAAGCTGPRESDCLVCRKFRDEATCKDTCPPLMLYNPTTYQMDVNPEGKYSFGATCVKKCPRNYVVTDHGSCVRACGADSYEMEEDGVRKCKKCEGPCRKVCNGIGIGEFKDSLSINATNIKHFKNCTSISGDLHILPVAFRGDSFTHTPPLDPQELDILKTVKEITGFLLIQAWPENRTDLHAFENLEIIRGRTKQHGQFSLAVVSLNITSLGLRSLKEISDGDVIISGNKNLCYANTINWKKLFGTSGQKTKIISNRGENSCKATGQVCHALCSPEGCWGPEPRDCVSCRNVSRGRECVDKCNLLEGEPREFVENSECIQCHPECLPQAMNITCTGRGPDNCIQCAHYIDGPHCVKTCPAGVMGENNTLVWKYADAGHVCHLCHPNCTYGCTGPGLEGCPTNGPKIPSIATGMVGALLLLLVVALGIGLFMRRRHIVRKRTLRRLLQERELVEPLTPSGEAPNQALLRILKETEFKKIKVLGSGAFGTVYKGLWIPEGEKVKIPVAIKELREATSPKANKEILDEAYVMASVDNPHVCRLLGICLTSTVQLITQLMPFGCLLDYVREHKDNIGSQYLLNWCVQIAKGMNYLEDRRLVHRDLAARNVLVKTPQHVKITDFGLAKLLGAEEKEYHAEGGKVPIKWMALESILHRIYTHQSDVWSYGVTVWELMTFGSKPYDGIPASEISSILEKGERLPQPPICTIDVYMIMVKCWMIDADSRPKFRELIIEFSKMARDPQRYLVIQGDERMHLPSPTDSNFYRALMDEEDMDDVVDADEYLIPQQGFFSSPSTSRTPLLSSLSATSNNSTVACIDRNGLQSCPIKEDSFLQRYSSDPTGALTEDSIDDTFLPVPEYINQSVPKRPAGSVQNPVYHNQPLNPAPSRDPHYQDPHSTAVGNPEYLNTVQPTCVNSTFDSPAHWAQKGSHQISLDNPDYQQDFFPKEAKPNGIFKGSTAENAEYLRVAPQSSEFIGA
Description: Inhibition of wild type EGFR (unknown origin) after 1.5 hrs by FRET-based Z'Lyte assay

cells [6] = assay type: functional, cell-based; conditions: Homo sapiens, HCC827, 72 h
[7] = target: Epidermal growth factor receptor (Homo sapiens, UniProt P00533, L858R/T790M); assay type: protein assay
Sequence of Epidermal growth factor receptor (Homo sapiens, UniProt P00533, L858R/T790M) (P00533 25-1210 T790M/L858R limits assumed): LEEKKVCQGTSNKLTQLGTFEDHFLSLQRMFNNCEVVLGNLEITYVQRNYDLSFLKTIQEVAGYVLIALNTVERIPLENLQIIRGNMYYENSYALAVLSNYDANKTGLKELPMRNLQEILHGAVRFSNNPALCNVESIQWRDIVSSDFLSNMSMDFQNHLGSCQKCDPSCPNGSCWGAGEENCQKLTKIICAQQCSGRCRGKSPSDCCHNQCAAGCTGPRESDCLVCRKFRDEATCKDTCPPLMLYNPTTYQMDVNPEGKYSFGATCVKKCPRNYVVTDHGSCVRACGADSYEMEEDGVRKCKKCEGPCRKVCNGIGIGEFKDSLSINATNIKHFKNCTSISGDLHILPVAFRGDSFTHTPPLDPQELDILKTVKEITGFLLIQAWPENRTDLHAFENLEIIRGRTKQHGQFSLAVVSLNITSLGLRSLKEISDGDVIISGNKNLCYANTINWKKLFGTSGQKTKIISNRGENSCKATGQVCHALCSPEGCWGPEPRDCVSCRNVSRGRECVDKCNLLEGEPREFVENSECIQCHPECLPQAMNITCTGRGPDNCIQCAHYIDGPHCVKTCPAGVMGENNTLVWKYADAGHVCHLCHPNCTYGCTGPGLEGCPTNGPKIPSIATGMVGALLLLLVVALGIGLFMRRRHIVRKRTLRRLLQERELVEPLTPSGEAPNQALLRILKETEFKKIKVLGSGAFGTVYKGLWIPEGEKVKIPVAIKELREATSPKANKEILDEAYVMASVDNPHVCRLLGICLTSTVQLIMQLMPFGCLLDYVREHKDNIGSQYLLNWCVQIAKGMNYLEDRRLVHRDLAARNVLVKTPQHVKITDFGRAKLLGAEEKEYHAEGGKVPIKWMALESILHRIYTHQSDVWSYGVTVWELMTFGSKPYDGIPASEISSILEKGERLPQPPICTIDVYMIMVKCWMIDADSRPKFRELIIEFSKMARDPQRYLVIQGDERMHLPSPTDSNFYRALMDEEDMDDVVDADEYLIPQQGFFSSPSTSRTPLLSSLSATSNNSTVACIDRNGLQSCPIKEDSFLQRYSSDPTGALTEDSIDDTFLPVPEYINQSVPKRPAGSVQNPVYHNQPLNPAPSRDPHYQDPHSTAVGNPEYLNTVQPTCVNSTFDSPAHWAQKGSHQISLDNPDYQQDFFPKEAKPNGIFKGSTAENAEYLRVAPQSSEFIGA
Description: Inhibition of EGFR L858R/T790M double mutant (unknown origin) after 1.5 hrs by FRET-based Z'Lyte assay

[8] = target: Epidermal growth factor receptor (Homo sapiens, UniProt P00533, L858R); assay type: protein assay
Sequence of Epidermal growth factor receptor (Homo sapiens, UniProt P00533, L858R) (P00533 25-1210 L858R limits assumed): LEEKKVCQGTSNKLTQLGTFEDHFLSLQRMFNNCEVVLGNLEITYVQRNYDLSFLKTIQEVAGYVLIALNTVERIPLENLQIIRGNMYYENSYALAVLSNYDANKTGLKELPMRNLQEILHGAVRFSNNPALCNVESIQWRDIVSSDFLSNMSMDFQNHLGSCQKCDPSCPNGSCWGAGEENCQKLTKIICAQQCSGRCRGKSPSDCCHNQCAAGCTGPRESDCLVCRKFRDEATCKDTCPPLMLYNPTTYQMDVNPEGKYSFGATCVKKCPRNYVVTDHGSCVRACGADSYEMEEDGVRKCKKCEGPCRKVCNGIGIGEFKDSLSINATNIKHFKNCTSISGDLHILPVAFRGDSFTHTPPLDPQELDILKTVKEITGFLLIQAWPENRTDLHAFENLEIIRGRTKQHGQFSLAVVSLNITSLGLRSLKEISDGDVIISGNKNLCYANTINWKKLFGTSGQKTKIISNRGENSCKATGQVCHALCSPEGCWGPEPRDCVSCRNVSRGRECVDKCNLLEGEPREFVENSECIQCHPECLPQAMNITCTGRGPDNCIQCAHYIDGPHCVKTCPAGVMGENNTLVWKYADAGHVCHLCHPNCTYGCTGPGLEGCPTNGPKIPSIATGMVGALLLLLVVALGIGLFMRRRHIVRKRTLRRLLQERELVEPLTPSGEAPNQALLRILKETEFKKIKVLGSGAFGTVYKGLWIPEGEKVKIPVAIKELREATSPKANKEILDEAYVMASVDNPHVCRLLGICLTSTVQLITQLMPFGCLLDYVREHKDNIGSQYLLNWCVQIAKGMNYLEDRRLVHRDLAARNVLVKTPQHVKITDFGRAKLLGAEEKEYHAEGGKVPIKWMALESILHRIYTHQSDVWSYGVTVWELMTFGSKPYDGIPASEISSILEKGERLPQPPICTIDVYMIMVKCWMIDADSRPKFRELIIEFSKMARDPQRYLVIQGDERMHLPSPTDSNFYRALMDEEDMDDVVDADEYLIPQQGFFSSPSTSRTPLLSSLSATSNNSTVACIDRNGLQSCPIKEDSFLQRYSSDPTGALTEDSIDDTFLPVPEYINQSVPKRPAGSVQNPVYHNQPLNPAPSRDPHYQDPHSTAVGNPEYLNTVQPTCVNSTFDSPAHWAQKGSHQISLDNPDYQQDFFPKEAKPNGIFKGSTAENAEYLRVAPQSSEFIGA
Description: Inhibition of EGFR L858R mutant (unknown origin) after 1.5 hrs by FRET-based Z'Lyte assay

NCI-H1975 [9] = assay: Antitumor activity against gefitinib-resistant human NCI-H1975 cells harboring EGFR L858R/[…] double mutant xenografted in athymic BALB/c nude mouse assessed as tumor growth inhibition at 8 mg/kg, ip qd administered for 14 days measured every other day during compound administration relative to vehicle-treated control; assay type: functional; conditions: 336 h, route intraperitoneal, read-out: TGI
NCI-H1975 [10] = assay: Inhibition of NFkappaB phosphorylation in gefitinib-resistant human NCI-H1975 cells harboring EGFR L858R/[…] double mutant at 0.01 to 1 uM after 24 hrs by Western blot analysis; assay type: cell-based
[11] = Induction of apoptosis in EGFR-independent human H460 cells at 1 to 5 uM after 24 hrs by annexin-V/7-AAD staining-based FACS flow cytometric analysis; assay type: cell-based; conditions: nci-h460, 24 h
HCC827 = assay: Induction of apoptosis in gefitinib-sensitive human HCC827 cells harboring EGFR […] deletion mutant after 24 hrs by annexin-V/7-AAD staining-based FACS flow cytometric analysis; assay type: functional, cell-based
NCI-H1975 [12] = assay: Induction of apoptosis in gefitinib-resistant human NCI-H1975 cells harboring EGFR L858R/[…] double mutant after 24 hrs by annexin-V/7-AAD staining-based FACS flow cytometric analysis; assay type: functional, cell-based
[13] = Induction of NO production in human 16HBE14o- cells harboring wild type EGFR assessed as increase in nitrite level at 100 uM after 150 mins by Griess assay; assay type: cell-based; conditions: 2.5 h
[14] = tested on: Epidermal growth factor receptor (Homo sapiens), P00533 [L858R,T790M]; conditions: NCI-H1975, 0.01 to 1 uM
Sequence of Epidermal growth factor receptor (Homo sapiens), P00533 [L858R,T790M] (P00533 whole entry T790M/L858R, looked up): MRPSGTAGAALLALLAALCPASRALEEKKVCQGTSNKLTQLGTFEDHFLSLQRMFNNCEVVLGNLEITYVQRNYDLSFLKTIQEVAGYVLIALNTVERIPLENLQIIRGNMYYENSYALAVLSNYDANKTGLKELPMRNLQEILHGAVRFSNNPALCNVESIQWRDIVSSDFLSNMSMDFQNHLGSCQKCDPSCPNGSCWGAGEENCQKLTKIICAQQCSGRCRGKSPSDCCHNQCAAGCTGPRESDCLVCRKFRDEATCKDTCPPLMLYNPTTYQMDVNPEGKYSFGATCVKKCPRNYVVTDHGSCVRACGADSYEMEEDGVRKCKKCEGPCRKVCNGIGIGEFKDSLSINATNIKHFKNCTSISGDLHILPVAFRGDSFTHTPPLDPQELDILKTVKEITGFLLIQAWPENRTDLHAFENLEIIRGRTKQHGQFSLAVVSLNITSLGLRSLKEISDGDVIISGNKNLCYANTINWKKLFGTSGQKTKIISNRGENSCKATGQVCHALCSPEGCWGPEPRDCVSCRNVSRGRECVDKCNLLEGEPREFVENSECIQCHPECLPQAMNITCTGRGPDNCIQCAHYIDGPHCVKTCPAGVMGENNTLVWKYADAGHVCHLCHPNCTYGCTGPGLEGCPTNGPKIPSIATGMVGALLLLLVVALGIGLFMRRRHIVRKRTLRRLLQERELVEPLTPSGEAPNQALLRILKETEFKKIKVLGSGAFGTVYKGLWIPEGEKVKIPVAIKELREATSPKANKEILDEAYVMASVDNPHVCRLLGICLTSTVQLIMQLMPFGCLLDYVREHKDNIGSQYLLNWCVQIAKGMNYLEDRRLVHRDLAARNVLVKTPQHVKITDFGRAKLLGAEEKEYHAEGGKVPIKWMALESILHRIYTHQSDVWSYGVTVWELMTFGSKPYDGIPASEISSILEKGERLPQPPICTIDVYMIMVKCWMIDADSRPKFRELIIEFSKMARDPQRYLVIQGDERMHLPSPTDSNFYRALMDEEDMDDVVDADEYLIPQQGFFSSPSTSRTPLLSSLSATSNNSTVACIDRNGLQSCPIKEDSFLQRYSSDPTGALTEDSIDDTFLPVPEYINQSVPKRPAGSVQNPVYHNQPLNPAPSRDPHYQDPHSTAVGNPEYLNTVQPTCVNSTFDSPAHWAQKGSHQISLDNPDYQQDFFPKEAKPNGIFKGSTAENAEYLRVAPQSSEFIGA

[15] = tested on: Epidermal growth factor receptor (Homo sapiens), P00533 [L858R,T790M]; conditions: NCI-H1975, 0.01 to 1 uM; remark: listed apart in the source
[16] = tested on: Epidermal growth factor receptor (Homo sapiens), P00533 [L858R,T790M]; conditions: NCI-H1975, 0.01 to 1 uM; remark: listed apart in the source
[17] = Selectivity ratio of IC50 for human 16HBE14o- cells harboring wild type EGFR to IC50 for gefitinib-resistant human NCI-H1975 cells harboring EGFR L858R/[…] double mutant; assay type: ADME, cell-based; conditions: read-out: Ratio IC50
[18] = Selectivity ratio of IC50 for human 16HBE14o- cells harboring wild type EGFR to IC50 for gefitinib-sensitive human HCC827 cells harboring EGFR […] deletion mutant; assay type: ADME, cell-based; conditions: read-out: Ratio IC50
[19] = Selectivity ratio of IC50 for human BEAS2B cells harboring wild type EGFR to IC50 for gefitinib-resistant human NCI-H1975 cells harboring EGFR L858R/[…] double mutant; assay type: ADME, cell-based; conditions: read-out: Ratio IC50
[20] = Selectivity ratio of IC50 for human BEAS2B cells harboring wild type EGFR to IC50 for gefitinib-sensitive human HCC827 cells harboring EGFR […] deletion mutant; assay type: ADME, cell-based; conditions: read-out: Ratio IC50
[21] = Selectivity ratio of IC50 for human A431 cells overexpressing wild type EGFR to IC50 for gefitinib-resistant human NCI-H1975 cells harboring EGFR L858R/[…] double mutant; assay type: ADME, cell-based
[22] = Selectivity ratio of IC50 for human A431 cells overexpressing wild type EGFR to IC50 for gefitinib-sensitive human HCC827 cells harboring EGFR […] deletion mutant; assay type: ADME, cell-based
[23] = Selectivity ratio of IC50 for human A549 cells harboring wild type EGFR and k-RAS mutation to IC50 for gefitinib-resistant human NCI-H1975 cells harboring EGFR L858R/[…] double mutant; assay type: ADME, cell-based
[24] = Selectivity ratio of IC50 for human A549 cells harboring wild type EGFR and k-RAS mutation to IC50 for gefitinib-sensitive human HCC827 cells harboring EGFR […] deletion mutant; assay type: ADME, cell-based

IC50 (cells [2])	IC50 (cells [3])	IC50 (A-431)	IC50 (A549)	IC50 [5]	IC50 (cells [6])	IC50 [7]	IC50 [8]	Structure (SMILES)	Activity (NCI-H1975 [1])	IC50 (NCI-H1975 [4])	further results
2620 nM	959 nM	3500 nM	5530 nM	52 nM	10 nM	16 nM	64 nM	C=CC(=O)Nc1cccc(Oc2nc(Nc3ccc(N4CCN(CC(=O)OCC#CCOc5no[n+]([O-])c5S(=O)(=O)c5ccccc5)CC4)cc3OC)ncc2Cl)c1	Active	43 nM	–
1550 nM	1530 nM	736 nM	2260 nM	51 nM	9 nM	14 nM	63 nM	C=CC(=O)Nc1cccc(Oc2nc(Nc3ccc(N4CCN(CC(=O)NCCOc5no[n+]([O-])c5S(=O)(=O)c5ccccc5)CC4)cc3OC)ncc2Cl)c1	Active	2020 nM	–
4150 nM	2560 nM	4070 nM	17200 nM	174 nM	6 nM	38 nM	189 nM	C=CC(=O)Nc1cccc(Oc2nc(Nc3ccc(N4CCN(CC(=O)OCCCCOc5no[n+]([O-])c5S(=O)(=O)c5ccccc5)CC4)cc3OC)ncc2Cl)c1	–	69 nM	selectivity ratio [17]: 40; selectivity ratio [18]: 40; selectivity ratio [19]: 40; selectivity ratio [20]: 40; Ratio IC50 [21]: 60; Ratio IC50 [22]: 60; Ratio IC50 [23]: 60; Ratio IC50 [24]: 60
2040 nM	1350 nM	1230 nM	2560 nM	59 nM	7 nM	17 nM	83 nM	C=CC(=O)Nc1cccc(Oc2nc(Nc3ccc(N4CCN(CC(=O)OCCOc5no[n+]([O-])c5S(=O)(=O)c5ccccc5)CC4)cc3OC)ncc2Cl)c1	–	63 nM	–
3160 nM	2940 nM	3020 nM	4450 nM	101 nM	41 nM	30 nM	113 nM	C=CC(=O)Nc1cccc(Oc2nc(Nc3ccc(N4CCN(CC(=O)OCCOCCOc5no[n+]([O-])c5S(=O)(=O)c5ccccc5)CC4)cc3OC)ncc2Cl)c1	Active	471 nM	–
2580 nM	2980 nM	1060 nM	2930 nM	99 nM	22 nM	23 nM	98 nM	C=CC(=O)Nc1cccc(Oc2nc(Nc3ccc(N4CCN(CC(=O)OCCCOc5no[n+]([O-])c5S(=O)(=O)c5ccccc5)CC4)cc3OC)ncc2Cl)c1	–	396 nM	–

Further lines, the compound ahead of its results:

Structure (SMILES)	IC50 (cells [2])	IC50 (cells [3])	IC50 (A-431)	IC50 (A549)	IC50 [5]	IC50 (cells [6])	IC50 [7]	IC50 [8]	Activity (NCI-H1975 [1])	IC50 (NCI-H1975 [4])	further results
C=CC(=O)Nc1cccc(Oc2nc(Nc3ccc(N4CCN(CC(=O)OCC)CC4)cc3OC)ncc2Cl)c1	707 nM	> 50000 nM	> 10000 nM	1450 nM	–	100 nM	–	–	–	1510 nM	–
C=CC(=O)Nc1cccc(Oc2nc(Nc3ccc(N4CCN(C)CC4)cc3OC)ncc2Cl)c1	–	1810 nM	–	2100 nM	–	8 nM	–	–	inactive	46 nM	inhibition in vivo at 8 mg/kg (NCI-H1975 [9]): 69%; inhibition (NCI-H1975 [10]): inactive; Activity [11]: Non-toxic; Activity (HCC827): Dose-dependent effect; Activity (NCI-H1975 [12]): Dose-dependent effect; Activity [13]: Non-toxic; inhibition [14]: Active; inhibition [15]: Active; inhibition [16]: Active
C=CC(=O)Nc1cccc(Oc2nc(Nc3ccc(N4CCN(CC(=O)NCCCOc5no[n+]([O-])c5S(=O)(=O)c5ccccc5)CC4)cc3OC)ncc2Cl)c1	2280 nM	2440 nM	357 nM	2480 nM	59 nM	21 nM	13 nM	68 nM	–	1030 nM	–
C=CC(=O)Nc1cccc(Oc2nc(Nc3ccc(N4CCN(CC(=O)N5CCN(CCOc6no[n+]([O-])c6S(=O)(=O)c6ccccc6)CC5)CC4)cc3OC)ncc2Cl)c1	1480 nM	1890 nM	609 nM	2120 nM	39 nM	291 nM	6 nM	40 nM	Active	311 nM	–
C=CC(=O)Nc1cccc(Oc2nc(Nc3ccc(N4CCN(CC(=O)N5CCC(Oc6no[n+]([O-])c6S(=O)(=O)c6ccccc6)CC5)CC4)cc3OC)ncc2Cl)c1	1800 nM	2200 nM	701 nM	4250 nM	42 nM	33 nM	13 nM	66 nM	–	855 nM	–
O=S(=O)(c1ccccc1)c1c(OCCCCCCO)no[n+]1[O-]	3400 nM	1240 nM	3380 nM	23600 nM	–	4290 nM	–	–	Active	5930 nM	–
C=CC(=O)Nc1cccc(Oc2nc(Nc3ccc(N4CCN(CC(=O)NCC(C)Oc5no[n+]([O-])c5S(=O)(=O)c5ccccc5)CC4)cc3OC)ncc2Cl)c1 (stereo not given)	1850 nM	988 nM	660 nM	1790 nM	73 nM	38 nM	20 nM	99 nM	Active	245 nM	–
